Assay results as given in patent US20060018827A1, “Positron therapy of inflammation, infection and disease” (priority 2004, published 2006).
Where “and” joins values, the source holds several entries; their conditions need not be identical. Equal values may be shown once.

Tests used:
[1] = system: mammary tumors of PyMT mice; experiment: PET imaging of PyMT mice with ^18F-FDG; format: in vivo, mouse; conditions: PET 1 hour after i.p. 0.5-2.0 mCi
Description: (§1) Animals. All procedures involving mice were conducted in accordance with the National Institutes of Health regulations concerning the use and care of experimental animals. The study of mice was approved by the Albert Einstein College of Medicine (AECOM) Animal Use Committee. Transgenic mice expressing the polyoma middle T antigen (PyMT) in the mammary epithelium under the control of mouse mammary tumor virus (MMTV) long terminal repeat were provided by Dr. W. J. Muller (McMaster University, Ontario, Canada) and then bred at AECOM. At the age of 10 weeks these mice have multiple mammary tumors 0.15-0.17 cm in diameter. In mice older than 18 weeks the tumors are more than 1 cm in diameter. MMTV-NeuT mice (Muller et al. 1988), which carry erbB-2 (Neu), one of the better known human breast cancer oncogenes, were purchased from Jackson Laboratories. MMTV-NeuT mice were obtained as retired breeders and some of them developed mammary tumors at the age of 5 months, whereas others remained-tumor free until 6-7 months of age. C3H/B6 female mice lacking the PyMT transgene were used as healthy controls in therapy experiments. […]
(§2) Imaging of mice with ^18F-FDG. […] The tumor to liver ratios (TLRs) were calculated by the formula TLR=counts per pixel in tumor divided by counts per pixel in liver.

[2] = system: mammary tumors of MMTV-neuT mice; experiment: PET imaging of MMTV-neuT mice with ^18F-FDG; format: in vivo, mouse; conditions: PET 1 hour after i.p. 0.5-2.0 mCi
Description: as §1, §2

xenografted Notch tumor = experiment: PET-CT imaging of Notch tumor-bearing mice with ^18F-FDG; format: in vivo, mouse; conditions: nude mice with Notch tumor; PET-CT 1 hour after i.p. 0.5 mCi
Description: Notch cell line. Mouse mammary gland cell line 5505 was derived from mammary tumors arising in transgenic mice which express an activated form of Notch 4 from the mouse mammary tumor virus long terminal repeat (MMTV-LTR) promoter/enhancer (Fitzgerald et al. 2000). This cell line is further referred to herein as Notch cells. The Notch cells were cultured in DMEM supplemented with 10% FCS, 10% NCTC-109, 1% non-essential amino acids, […] D-glucose and 1% penicillin-streptomycin.
Animals. All procedures involving mice were conducted in accordance with the National Institutes of Health regulations concerning the use and care of experimental animals. The study of mice was approved by the Albert Einstein College of Medicine (AECOM) Animal Use Committee. Transgenic mice expressing the polyoma middle T antigen (PyMT) in the mammary epithelium under the control of mouse mammary tumor virus (MMTV) long terminal repeat were provided by Dr. W. J. Muller (McMaster University, Ontario, Canada) and then bred at AECOM. At the age of 10 weeks these mice have multiple mammary tumors 0.15-0.17 cm in diameter. […]
Notch tumor-bearing animals were fasted and anesthetized as described above. […] The tumor to normal muscle ratio (TNR) was calculated according to the formula: TNR=average counts per pixel in tumor/average counts per pixel in normal muscle.

metastatic breast cancer = experiment: ^18F-FDG-PET in breast cancer patients with metastatic disease; format: in vivo, human
Description: (§3) ^18F-FDG-PET in breast cancer patients with metastatic disease. Approval was obtained from the Albert Einstein College of Medicine Cancer Center Protocol Review Committee and the Montefiore Medical Center Institutional Review Board. Retrospectively, five consecutive patients with breast cancer and metastatic disease shown on ^18F-FDG-PET scanning were evaluated. After more than 4 hours of fasting, the patients were administered 3.5 mCi of ^18F-FDG, and rested during an uptake period of 45 minutes. The patients then underwent a whole-body scan on the CPET scanner. The scanning protocol consisted of 6 minutes of emission and two rotations of a ^137Cs source for transmission per bed position, and approximately six bed positions. Images were corrected for attenuation and reconstructed with the iterative method. To reduce volume averaging, a small round region of interest 12 pixels in size was drawn in the center of the tumor and in the center of normal liver. The diameter of the region was 14 mm. Standardized uptake values (SUVs) were calculated for all regions of interest by the formula SUV=(activity in tissue [mCi/g]) divided by (injected activity [mCi]/body weight [g]). The tumor to liver ratios (TLRS) were calculated by the formula TLR=SUV of tumor divided by SUV of liver.

metastatic cancers = experiment: FDG-PET SUVmax in patients with different types of metastatic cancer; format: in vivo, human
Description: as §3
Human Tumor Dosimetry. For each patient, the tumor with the highest SUVmax was used, and corresponding calculated tumor dose (TD) for metastatic cancers are shown in Columns 4 and 5 in Table 3. Tumor dose is calculated by the formulae: D(cGy)=100*SUV, for a dose of 5 Ci HD ^18F-FDG; and D(cGy)=150*SUV, for a dose of 7.5 Ci HD ^18F-FDG.

[3] = Patient 1, metastasis to sub-carinal lymph node, 3.5 mCi
[4] = Patient 2, metastasis to the left axilla, 3.5 mCi
[5] = Patient 4, metastasis to the right axilla, 3.5 mCi

## O=C[C@H]([18F])[C@@H](O)[C@H](O)[C@H](O)CO [^18F-FDG, ^18F-2-deoxy-2-fluoro-D-glucose]
[1]
  tumor to liver ratio (TLR), mean±SD: 1.6±0.1
[2]
  tumor to liver ratio (TLR), mean±SD: 1.6±0.4
Xenografted Notch tumor
  tumor to normal muscle ratio (TNR): 3.24 and 3.24±0.20
Metastatic breast cancer; [3]
  SUV Metastasis: 5.3
  TLR: 1.89
Metastatic breast cancer; Patient 1, 3.5 mCi
  SUV Normal liver: 2.8
Metastatic breast cancer; [4]
  SUV Metastasis: 7.4
  TLR: 3.36
Metastatic breast cancer; Patient 2, 3.5 mCi
  SUV Normal liver: 2.3
Metastatic breast cancer; Patient 3, liver metastasis (10 cm×6 cm×4.5 cm), 3.5 mCi
  SUV Metastasis: 5.8
Metastatic breast cancer; Patient 3, liver metastasis, 3.5 mCi
  TLR: 2.23
Metastatic breast cancer; Patient 3, tumor with a diameter of 2 cm
  lowest SUV: 3.8
Metastatic breast cancer; Patient 3, 3.5 mCi
  SUV Normal liver: 2.6
Metastatic breast cancer; [5]
  SUV Metastasis: 5.3
  TLR: 2.52
Metastatic breast cancer; Patient 4, 3.5 mCi
  SUV Normal liver: 2.1
Metastatic breast cancer; Patient 5, right lung metastasis (most intense, diameter 5 cm), 3.5 mCi
  SUV Metastasis: 9.9
Metastatic breast cancer; Patient 5, right lung metastasis, 3.5 mCi
  TLR: 3.67
Metastatic breast cancer; Patient 5, tumor with a diameter of 1.5 cm
  least intense SUV: 2.9
Metastatic breast cancer; Patient 5, 3.5 mCi
  SUV Normal liver: 2.7
Metastatic breast cancer; five patients with metastatic breast cancer, 3.5 mCi
  average TLR: 2.7±0.8
Metastatic cancers; metastatic Anaplastic Thyroid cancer, 3 patients
  SUVmax Median: 17.4
Metastatic cancers; metastatic Breast cancer, 10 patients
  SUVmax Median: 7.2
Metastatic cancers; metastatic Cervical cancer, 4 patients
  SUVmax Median: 7.0
Metastatic cancers; metastatic Esophageal cancer, 5 patients
  SUVmax Median: 11.1
Metastatic cancers; metastatic Head & Neck cancer, 9 patients
  SUVmax Median: 6.6
Metastatic cancers; metastatic Lung cancer, 10 patients
  SUVmax Median: 5.9
Metastatic cancers; metastatic Lymphoma, 9 patients
  SUVmax Median: 5.6
Metastatic cancers; metastatic Melanoma, 7 patients
  SUVmax Median: 9.0
Metastatic cancers; metastatic Ovarian cancer, 9 patients
  SUVmax Median: 5.3
Metastatic cancers; patient with metastatic esophageal cancer, abdominal metastasis
  maximum SUV: 33
Metastatic cancers; patient with metastatic non-small cell lung cancer, right mediastinum
  maximum SUV: 14.8
